Test results from patent US10221179B2, “Substituted pyrazoloquinazolinones and pyrroloquinazolinones as allosteric modulators of group II metabotropic glutamate receptors” (DOMAIN THERAPEUTICS, priority 2014, dated 2019).

Assays:
human mGluR2 (hmGluR2) = target: T1, human mGluR2 (hmGluR2) (Homo sapiens, UniProt Q14416); test: Ca++ functional assay, human mGluR2 transiently over-expressed in HEK-293 cells (agonist and negative allosteric modulator modes); assay type: cell-based; conditions: glutamate at EC80, intracellular calcium (Fluo4AM), read-out: hmGluR2 negative allosteric modulator activity IC50
T1 construct: expressed in transfected cells; host or cells: HEK-293 cells, transient co-transfection by electroporation
T1 sequence (Q14416 19-872): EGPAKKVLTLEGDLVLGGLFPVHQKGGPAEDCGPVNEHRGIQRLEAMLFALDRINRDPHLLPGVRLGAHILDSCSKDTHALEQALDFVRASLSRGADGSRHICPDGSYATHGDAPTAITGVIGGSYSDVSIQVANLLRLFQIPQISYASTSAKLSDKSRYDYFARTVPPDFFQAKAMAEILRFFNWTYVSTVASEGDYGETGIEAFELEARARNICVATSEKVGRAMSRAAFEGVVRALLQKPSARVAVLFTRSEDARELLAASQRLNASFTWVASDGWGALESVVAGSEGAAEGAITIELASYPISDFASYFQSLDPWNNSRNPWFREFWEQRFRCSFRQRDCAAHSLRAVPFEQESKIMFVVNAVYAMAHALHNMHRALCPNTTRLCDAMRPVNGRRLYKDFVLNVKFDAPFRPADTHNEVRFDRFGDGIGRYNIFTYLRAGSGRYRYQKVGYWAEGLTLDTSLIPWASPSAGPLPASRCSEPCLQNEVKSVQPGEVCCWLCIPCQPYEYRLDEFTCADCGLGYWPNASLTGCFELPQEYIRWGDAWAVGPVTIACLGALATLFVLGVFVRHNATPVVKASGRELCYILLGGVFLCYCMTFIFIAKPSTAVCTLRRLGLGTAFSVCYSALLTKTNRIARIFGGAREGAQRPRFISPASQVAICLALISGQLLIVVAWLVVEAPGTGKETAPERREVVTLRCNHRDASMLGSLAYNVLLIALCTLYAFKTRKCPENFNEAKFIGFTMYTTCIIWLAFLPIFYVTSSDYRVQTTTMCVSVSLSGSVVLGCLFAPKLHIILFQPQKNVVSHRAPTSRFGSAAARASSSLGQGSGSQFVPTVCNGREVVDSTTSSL
Protocol: Example 127: Human mGluR2 and mGluR3 Evaluation Using Ca^++ Functional Assay
Examples of the present invention were tested successively for their agonist and negative allosteric modulator activities on human mGluR2 (hmGluR2) and mGluR3 (hmGluR3) transiently over-expressed in HEK-293 cells.
Cell Culture and Transfection
HEK-293 cells are maintained in Modified Eagle's Medium supplemented with 10% Foetal Calf Serum, 1% Penicillin/Streptomycin and 1% non-essential amino acids at 37° C./5% CO2.
Cells are co-transfected by electroporation with four DNA plasmids encoding hmGluR2 or hmGluR3, a chimeric G protein allowing redirection of the activation signal to intracellular calcium pathway (Brabet I et al., Neuropharmacology 37(8), 1043-51, 1998), and two glutamate transporters minimizing receptor desensitization by endogenous glutamate. After transfection, cells are cultured for 24 h at 37° C./5% CO2.
Calcium Assay IC50 Determination
Receptor activity is detected by changes in intracellular calcium measured using the fluorescent Ca^2+ sensitive dye, Fluo4AM (Molecular Probes).
On the day of the assay, culture medium is aspirated and replaced during 3 hours by medium without serum supplemented with 1% Glutamax, 1% Penicillin/Streptomycin and 1% non-essential amino acids. Then, cells are washed with freshly prepared buffer B (HBSS 1×(PAA), Hepes 20 mM, MgSO4-7H2O 1 mM, Na2CO3 3.3 mM, CaCl2-2H2O 1.3 mM, 0.1% BSA, Probenecid 2.5 mM) and loaded at 37° C. in 5% CO2 for 1.5 hours with buffer B containing 1 μM Fluo4AM, 0.1 mg/mL Pluronic Acid, 7 μg/mL Glutamate Pyruvate Transaminase and 2 mM sodium pyruvate. Afterwards cells are washed twice with buffer B. Then cells are detached using StemPro Accutase (Fischer Scientific), resuspended in buffer B and seeded in 384 well plate at a density of 30,000 cells per well. Addition of compounds and intracellular Ca^2+ measurements (excitation 485 nm, emission 525 nm) are performed by the fluorescence microplate reader FLIPRTetra (Molecular Devices).
Agonist and negative allosteric modulator activities of compounds are consecutively evaluated on the same cell plate. […] Then, cells are stimulated by an EC80 glutamate concentration and fluorescence is recorded for additional 3 minutes. EC80 glutamate concentration is the concentration giving 80% of the maximal glutamate response. Agonist or negative allosteric modulator activity(ies) are evaluated in comparison to basal signals evoked by buffer B or EC80 glutamate alone, respectively.
For IC50 determination, a dose-response test is performed using 20 concentrations (ranging over 6 logs) of each compound. Dose-response curves are fitted using the sigmoidal dose-response (variable slope) analysis in GraphPad Prism program (Graph Pad Inc) and IC50 of negative allosteric modulator activity is calculated. Dose-response experiments are performed in duplicate, two times independently.

IC50 (human mGluR2 (hmGluR2)) [nM] | melting point [°C] | SMILES
< 1000 | 188 to 194 | Cn1c(=O)c2ccccc2n2nc(-c3ccnc(OC(C(F)(F)F)C(F)(F)F)c3)cc12 [Example 25, 4-Methyl-2-[2-(2,2,2-trifluoro-1-trifluoromethyl-ethoxy)-pyridin-4-yl]-4H-pyrazolo[1,5-a]quinazolin-5-one]
< 1000 | > 250 | Cn1c(=O)c2ccc(N3CCC(O)C3)cc2n2nc(-c3ccnc(C(F)(F)F)c3)cc12 (stereo not shown) [Example 70, 8-(3-Hydroxy-pyrrolidin-1-yl)-4-methyl-2-(2-trifluoromethyl-pyridin-4-yl)-4H-pyrazolo[1,5-a]quinazolin-5-one]
< 1000 | 210 to 220 | Cn1c(=O)c2ccc(F)cc2n2nc(-c3ccnc(C4CCC4)c3)cc12 [Example 116, 2-(2-Cyclobutyl-pyridin-4-yl)-8-fluoro-4-methyl-4H-pyrazolo[1,5-a]quinazolin-5-one]
< 1000 | > 250 | Cn1c(=O)c2cc(F)c(N3CCCC3CO)cc2n2nc(-c3ccnc(C(F)(F)F)c3)cc12 (stereo not shown) [Example 122, 7-Fluoro-8-(2-hydroxymethyl-pyrrolidin-1-yl)-4-methyl-2-(2-trifluoromethyl-pyridin-4-yl)-4H-pyrazolo[1,5-a]quinazolin-5-one]
< 1000 | 196 to 207 | Cn1c(=O)c2ccccc2n2nc(-c3ccnc(C(C)(F)F)c3)cc12 [Example 32, 2-[2-(1,1-Difluoro-ethyl)-pyridin-4-yl]-4-methyl-4H-pyrazolo[1,5-a]quinazolin-5-one]
< 1000 | 232 to 237 | [2H]C([2H])([2H])n1c(=O)c2ccccc2n2nc(-c3ccnc(C(F)(F)F)c3)cc12 [Example 27, 4-Methyl(D3)-2-(2-trifluoromethyl-pyridin-4-yl)-4H-pyrazolo[1,5-a]quinazolin-5-one]
< 1000 | 180 to 182 | CCOc1cc(-c2cc3n(C)c(=O)c4ccccc4n3n2)ccn1 [Example 15, 2-(2-ethoxy-pyridin-4-yl)-4-methyl-4H-pyrazolo[1,5-a]quinazolin-5-one]
< 1000 | > 250 | CC(C)c1cc(-c2cc3n(C)c(=O)c4ccccc4n3n2)ccn1.Cl [Example 11, 2-(2-Isopropyl-pyridin-4-yl)-4-methyl-4H-pyrazolo[1,5-a]quinazolin-5-one]
< 1000 | 150 to 155 | Cn1c(=O)c2ccccc2n2nc(-c3ccnc(OCC(F)(F)C(F)(F)F)c3)cc12 [Example 24, 4-Methyl-2-[2-(2,2,3,3,3-pentafluoro-propoxy)-pyridin-4-yl]-4H-pyrazolo[1,5-a]quinazolin-5-one]
< 1000 | 220 to 230 | COc1cc2c(=O)n(C)c3cc(-c4ccnc(C(F)(F)F)c4)nn3c2cc1F [Example 89, 8-Fluoro-7-methoxy-4-methyl-2-(2-trifluoromethyl-pyridin-4-yl)-4H-pyrazolo[1,5-a]quinazolin-5-one]
< 1000 | 112 to 117 | Cn1c(=O)c2ccc(N3CCC(O)CC3)cc2n2nc(-c3ccnc(C(F)(F)F)c3)cc12 [Example 63, 8-(4-Hydroxy-piperidin-1-yl)-4-methyl-2-(2-trifluoromethyl-pyridin-4-yl)-4H-pyrazolo[1,5-a]quinazolin-5-one]
< 1000 | 173 to 176 | CC(C)Oc1cc(-c2cc3n(C)c(=O)c4ccccc4n3n2)ccn1 [Example 16, 2-(2-Isopropoxy-pyridin-4-yl)-4-methyl-4H-pyrazolo[1,5-a]quinazolin-5-one]
< 1000 | 219 to 223 | Cn1c(=O)c2ccccc2n2nc(-c3ccnc(OCC(F)(F)F)c3)cc12 [Example 21, 4-Methyl-2-[2-(2,2,2-trifluoro-ethoxy)-pyridin-4-yl]-4H-pyrazolo[1,5-a]quinazolin-5-one]
< 1000 | 220 to 226 | Cn1c(=O)c2ccc(F)cc2n2nc(-c3ccnc(C(F)F)c3)cc12 [Example 114, 2-(2-Difluoromethyl-pyridin-4-yl)-8-fluoro-4-methyl-4H-pyrazolo[1,5-a]quinazolin-5-one]
< 1000 | > 250 | Cn1c(=O)c2ccc(C(N)=O)cc2n2nc(-c3ccnc(C(F)(F)F)c3)cc12 [Example 77, 4-Methyl-5-oxo-2-(2-trifluoromethyl-pyridin-4-yl)-4,5-dihydro-pyrazolo[1,5-a]quinazoline-8-carboxylic Acid Amide]
< 1000 | 172 to 180 | COc1ccc2c(c1)c(=O)n(C)c1cc(-c3ccnc(OCC(F)(F)F)c3)nn21 [Example 102, 7-Methoxy-4-methyl-2-[2-(2,2,2-trifluoro-ethoxy)-pyridin-4-yl]-4H-pyrazolo[1,5-a]quinazolin-5-one]
< 1000 | 221 to 233 | Cn1c(=O)c2ccc(N3CCC(O)CC3)cc2n2nc(-c3ccnc(C4CC4)c3)cc12 [Example 113, 2-(2-Cyclopropyl-pyridin-4-yl)-8-(4-hydroxy-piperidin-1-yl)-4-methyl-4H-pyrazolo[1,5-a]quinazolin-5-one]
< 1000 | > 250 | CN(C)c1ccc2c(=O)n(C)c3cc(-c4ccnc(C(F)(F)F)c4)nn3c2c1 [Example 64, 8-Dimethylamino-4-methyl-2-(2-trifluoromethyl-pyridin-4-yl)-4H-pyrazolo[1,5-a]quinazolin-5-one]
< 1000 | > 250 | Cn1c(=O)c2ccc(C(=O)N3CC(O)C3)cc2n2nc(-c3ccnc(C(F)(F)F)c3)cc12 [Example 110, 8-(3-Hydroxy-azetidine-1-carbonyl)-4-methyl-2-(2-trifluoromethyl-pyridin-4-yl)-4H-pyrazolo[1,5-a]quinazolin-5-one]
< 1000 | > 250 | Cn1c(=O)c2cc(O)ccc2n2nc(-c3ccnc(C(F)(F)F)c3)cc12 [Example 48, 7-Hydroxy-4-methyl-2-(2-trifluoromethyl-pyridin-4-yl)-4H-pyrazolo[1,5-a]quinazolin-5-one]
< 1000 | > 250 | COc1cc2c(=O)n(C)c3cc(-c4ccnc(C(F)(F)F)c4)nn3c2cc1N1CCC(O)CC1 [Example 90, 8-(4-Hydroxy-piperidin-1-yl)-7-methoxy-4-methyl-2-(2-trifluoromethyl-pyridin-4-yl)-4H-pyrazolo[1,5-a]quinazolin-5-one]
< 1000 | > 250 | Cn1c(=O)c2cc(F)c(N3CC(O)C3)cc2n2nc(-c3ccnc(C(F)(F)F)c3)cc12 [Example 119, 7-Fluoro-8-(3-hydroxy-azetidin-1-yl)-4-methyl-2-(2-trifluoromethyl-pyridin-4-yl)-4H-pyrazolo[1,5-a]quinazolin-5-one]
< 1000 | 239 to 242 | CCNc1ccc2c(c1)c(=O)n(C)c1cc(-c3ccnc(C(F)(F)F)c3)nn21 [Example 45, 7-Ethylamino-4-methyl-2-(2-trifluoromethyl-pyridin-4-yl)-4H-pyrazolo[1,5-a]quinazolin-5-one]
< 1000 | > 250 | CNc1ccc2c(=O)n(C)c3cc(-c4ccnc(C(F)(F)F)c4)nn3c2c1 [Example 61, 4-Methyl-8-methylamino-2-(2-trifluoromethyl-pyridin-4-yl)-4H-pyrazolo[1,5-a]quinazolin-5-one]
< 1000 | > 250 | CN(C)c1cc2c(cc1F)c(=O)n(C)c1cc(-c3ccnc(C(F)(F)F)c3)nn21 [Example 91, 8-Dimethylamino-7-fluoro-4-methyl-2-(2-trifluoromethyl-pyridin-4-yl)-4H-pyrazolo[1,5-a]quinazolin-5-one]

SMILES | IC50 (human mGluR2 (hmGluR2)) [nM] | melting point [°C]
Cn1c(=O)c2ccccc2n2nc(-c3ccnc(OC4CCC4)c3)cc12 [Example 17, 2-(2-Cyclobutoxy-pyridin-4-yl)-4-methyl-4H-pyrazolo[1,5-a]quinazolin-5-one] | < 1000 | 218 to 222
